The record followed here is patent US20250017952A1, “ANTIFUNGAL COMPOUND, COMPOSITION AND USES THEREOF” (SASTRA DEEMED UNIVERSITY, priority 2021, published 2025).

“And” between values parts separate entries of the source, which are not always exact repeats. Equal entries are not always repeated. “Also recorded” adds a separate entry of the source. Where only a bound is given, the exact number is not on record here.

For assay [1], the system named is C. albicans planktonic cells. Kind of assay: Planktonic growth, OD at 595 nm. The settings on record: 100 μM-0.47 pM tested. The class given is cell-based, Candida albicans. The procedure: (§1) FIG. 3 illustrates antifungal and antibiofilm evaluation against C. albicans at varying concentrations: The effect of the Cangrelor on planktonic cells was determined by measuring the OD at 595 nm. A wide range of concentrations ranging from 100 μM-0.47 pM were considered for evaluation. Biofilm inhibitory effects were determined by measuring the biofilm biomass using the Crystal Violet (CV) assay. The dose-response curves were plotted by fitting the inhibition data using a 4-parameter logistic equation. Cangrelor inhibited biofilms at a minimum concentration of 120 pM

The next assay concerns C. albicans biofilm. Kind of assay: Biofilm inhibition, Crystal Violet (CV) assay. It is filed as cell-based, Candida albicans. The settings on record: crystal violet biofilm biomass. As for the experimental part:
as §1

In assay [2] the test system is C. albicans SC5314 biofilm. Kind of assay: CLSM analysis of biofilm with COMSTAT quantification. The class given is cell-based, Candida albicans. Particulars: for live/dead fluorescence of cells in CLSM: green = live, red = dead. The source says: FIG. 4a illustrates CLSM analyses of biofilm inhibitory effects of Cangrelor against C. albicans SC5314. […] The presence of red fluorescence in fluconazole treatment confirms its fungicidal effect. The COMSTAT analysis was done to quantify the biofilm coverage, average thickness, and biovolume from Z-stacks obtained from at least 5 regions of the glass slides, using a confocal laser scanning microscope (Olympus FLUOVIEW, FV1000) with a 40× objective lens (FIG. 4b).

Assay [3] concerns C. albicans SC5314 biofilm. In words: SEM analysis of biofilm. It is filed as cell-based, Candida albicans. The procedure: FIG. 5 illustrates Cangrelor abolish C. albicans SC5314 biofilm. An overnight culture of C. albicans was grown overnight at 30° C. in YPD liquid media. C. albicans cells (1.5×10^7 cells/ml) were seeded on the glass slides in the presence or absence of the ALS-3 drug-like chemotype, Cangrelor in YPD and incubated at 37° C. for 24 h. […] Statistical significance was determined using the unpaired Student's t test (P<0.0001).

For assay [4], the system named is Candida albicans SC5314, ATCC90028, clinical isolate BF1. Kind of assay: Germ tube / filamentation inhibition, phase contrast. It is filed as cell-based. The settings on record: for germ tube / hyphal morphogenesis, time-dependent: till 6 h, three strains. The procedure: FIG. 6 illustrates the phase contrast images of germ tube inhibition of Candida albicans for the three strains by cangrelor in a time-dependent manner till 6 h. The untreated C. albicans show the hyphal development from the 2nd hour, where the yeast cells adhere, and at the 6 h, the hyphal is elongated and branched.
FIG. 7 illustrates the phase contrast images of filamentation inhibition of Candida albicans by cangrelor after 24 h of inhibition.
A time-dependent mapping of the hyphal development was done until 6 h upon Cangrelor treatment and compared to the untreated control for the three strains of C. albicans, including the standard strains-SC5314 and ATCC90028, and clinical isolate, BF1. […] The morphogenesis switch inhibition is essential as the primary virulence characteristic of C. albicans is hyphal formation. The hyphal form is necessary for biofilm formation and polymicrobial interaction to invade the host cell and overcome the immune response.

Assay [5] relates to C. albicans biofilm, hyphal and virulence genes. Kind of assay: qRTPCR of biofilm, hyphal and virulence genes. It is filed as cell-based, Candida albicans. The procedure: FIG. 8 illustrates the qRTPCR analysis of biofilm, hyphal and virulence genes in C. albicans biofilms treated with Cangrelor using 18srRNA as the housekeeping gene. Briefly, after 24 h incubation, planktonic cells were removed, and biofilm cells were collected, and RNA was extracted for the treated and untreated groups. […] The data was obtained in triplicates and analysis was performed by the 2^−ΔΔCt method.

Assay [6] relates to C. albicans virulence genes (biofilm, hyphae, drug resistance). In words: RNAseq differential expression analysis. The class given is cell-based, Candida albicans. Particulars: treated vs untreated. An excerpt:
A cutoff absolute value of log fold change >1 (2-fold change) was used. Adjusted P value <0.05 (c) Venn diagram illustrating the degree of overlap between various virulence genes (Biofilm Inducing (BI); Hyphal Inducing (HI); and Drug Resistance (DR) in C. albicans under drug (Cangrelor) treated and untreated conditions.
TRY6, FYV5 (Pentland et al., 2018; Murillo et al., 2005; Nett et al., 2009a), drug-resistance genes MAK1 and RPP1 (Nett et al., 2009b; Levitin & Whiteway, 2007a) and upregulation of the genes, GAL and MAF1 that negatively regulates (repressors) the biofilm phenotype in C. albicans (Nobile et al., 2012). […] In Candida albicans, the potential shift from yeast to hypha is a route cause to host invasion and symbiotic relationship with other pathogens, where the data was significant to show downregulation of hyphal-specific genes such as ECE1, RAS, NDT80 (Moyes et al., 2016). […] This observation was very crucial to the inventor's claim that the compound, Cangrelor could potentiate the anti-fungal susceptibility (Moyes et al., 2016; Maglott et al., 2007b; Levitin & Whiteway, 2007b; Chaudhuri et al., 2011; Singh et al., 2011). Taken together, Cangrelor systematically downregulate the virulence features to potentially curb the pathogenesis of C. albicans.

The test system of assay [7] is Candida albicans on T24 bladder epithelial cells. In words: Adhesion and invasion of C. albicans in monolayer T24 bladder epithelial cells. The class given is cell-based. The source says:
FIG. 10 illustrates the microscopic images of the monolayer T24 bladder epithelial cells infected with Candida albicans with and without Cangrelor treatment. […] The yeast cells (circled in white) were maintained upon the treatment and thereby couldn't adhere and invade the epithelial cells.

On to `CSCCNc1nc(SCCC(F)(F)F)nc2c1ncn2[C@@H]1O[C@H](COP(=O)(O)OP(=O)(O)C(Cl)(Cl)P(=O)(O)O)[C@@H](O)[C@H]1O` [Cangrelor], for which the “growth of C. albicans (planktonic)” value in assay [1] was “without affecting growth; also recorded: not inhibited”. In addition, in the assay on C. albicans biofilm (Candida albicans, read-out: BIC50 (50% Biofilm Inhibition Concentration)), the IC50 came to 0.12 nM. In the assay on C. albicans biofilm, the “concentration at which biofilms were inhibited (minimum / very low concentration)” value is listed as 120 pM. Besides, in assay [2] (C. albicans SC5314), the “biofilm structure in CLSM images” value is “no biofilm formation”. The molecule further showed a roughness coefficient in assay [2] (COMSTAT, control 1.2) of 1.91. The molecule further showed a diffusion distance in assay [2] (COMSTAT, control 8.73 μm) of 0.18 μm. The molecule also registered an average biofilm thickness in assay [2] (COMSTAT, control 28.64 μm) of 0.5 μm. In addition, the biofilm biomass entry in assay [2] (COMSTAT, untreated 25.96 μm) is “significant reduction”. The “live/dead fluorescence of cells in CLSM” value in assay [2] was “live cells”. In addition, the “filamentation in SEM” value in assay [3] (120 pM vs untreated control) was “abolished filamentation”. For the same molecule, in assay [3] (120 pM, 24 h, YPD, untreated more than 1200 cells), the “number of cells in SEM” value was < 56 cells and < 60 cells. The “filamentation after 24 h” value in assay [4] (24 h) is “maintained the yeast form”. For the same molecule, the “germ tube / hyphal morphogenesis, time-dependent” value in assay [4] was “inhibits the hyphal morphogenesis”. Besides, in assay [4] (listed as cangrelor), the “germ tube / hyphal morphogenesis, time-dependent” value is recorded as “did not switch to the hyphal form”. Moreover, in assay [5] (240 pM, 24 h biofilm cells), the “expression of adhesion and invasion genes” value is “downregulated”. Moreover, in assay [5] (qRTPCR), the ECE1 gene expression result was “downregulation” and the ERG11 gene expression result was “downregulated”. The same molecule returned a PLB1 expression downregulation in assay [5] (qRTPCR, 2^−ΔΔCt) of about 2 log fold. The “expression of transcriptional regulators of biofilm and hyphal genes, adhesin and hyphal specific protein” value in assay [5] (qRTPCR, 18srRNA housekeeping) is “downregulated”. Also, the “number of biofilm inducing genes downregulated” value in assay [6] is “more than 90 genes”. Further, in assay [7], the “adherence and invasion of epithelial cells” value is “reducing adherence and invasion”; the “hyphal morphogenesis on epithelial cells” value is on record as “inhibited hyphal morphogenesis”.
`OC(Cn1cncn1)(Cn1cncn1)c1ccc(F)cc1F` [fluconazole]: the “live/dead fluorescence of cells in CLSM” value in assay [2] is “dead cells”.
